According to the supplement of paper PMC10307832:

compound: Cc1ccc2nc(NCCN)c3ncc(C)n3c2c1 + CC1(C)CCC(c2ccc(Cl)cc2)=C(CN2CCN(c3ccc(C(=O)NS(=O)(=O)c4ccc(N[C@H](CCN5CCOCC5)CSc5ccccc5)c(S(=O)(=O)C(F)(F)F)c4)cc3)CC2)C1 [Navitoclax] (partner 0.5 µM); experiment: relative viability (nuclei count vs DMSO), 5 days (fraction); higher = more cells survive; settings: first compound 4 µM
Method in brief: (§1)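 Relative viability equals treated-well nuclei counts divided by vehicle-well nuclei counts. Counts came from 4× images of lung cancer cell lines grown in 1536-well plates for 5 days after pin-tool dosing on the day after seeding. Dosing used one drug alone or a fixed anchor-drug dose plus five library-drug doses (not always all listed) in √10 steps, and values are medians of duplicate plates.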

Cell Line	relative viability
NCI-H2023	0.954

compound: O=C(/C=C/c1ccccc1)NC(NC(=S)Nc1cccc2cccnc12)C(Cl)(Cl)Cl [Salubrinal] + COc1cc2c(Oc3ccc(NC(=O)C4(C(=O)Nc5ccc(F)cc5)CC4)cc3F)ccnc2cc1OCCCN1CCOCC1 [Foretinib] (partner 0.25 µM); experiment: as above; settings: first compound 0.08 µM
Method in brief: as §1

Cell Line	relative viability
NCI-H2405	1.06
HOP-62	1.07
SK-MES-1	1.08
LU99A	0.92
BEN	0.505
HARA	0.836
HCC-78	0.597
NCI-H322M	1.07
LCLC-97TM1	0.908
NCI-H2009	1.28
A-427	0.993
NCI-H441	1.24
NCI-H1734	0.944
NCI-H460	1.15
NCI-H2347	0.906
SK-LU-1	0.947

Cell Line	relative viability
NCI-H1395	0.993
201T	1.36
NCI-H1915	1.11
HCC-827	1.02
LXF-289	1.12
NCI-H23	1.13
NCI-H647	1.4
CAL-12T	1.14
NCI-H1651	1.01
EPLC-272H	0.853
NCI-H2228	0.976
NCI-H1355	1.08
NCI-H3122	1.07
NCI-H1437	1.3
NCI-H1755	0.95
NCI-H2023	1.03

same assay, conditions: first compound 0.253 µM

Cell Line	relative viability
NCI-H2405	1.05
HOP-62	0.981
SK-MES-1	0.85
LU99A	0.802
BEN	0.867
HARA	0.628
HCC-78	0.561
NCI-H322M	1.07
LCLC-97TM1	0.885
NCI-H2009	1.2
A-427	1.32
NCI-H441	0.917
NCI-H1734	0.774
NCI-H460	0.987
NCI-H2347	1.15
SK-LU-1	0.898

Cell Line	relative viability
NCI-H1395	1.1
NCI-H1915	0.932
HCC-827	1.02
LXF-289	0.909
NCI-H23	0.999
NCI-H647	1.2
CAL-12T	1.07
NCI-H1651	0.759
EPLC-272H	0.655
NCI-H2228	0.875
NCI-H1355	1.01
NCI-H3122	0.924
NCI-H1437	1.23
NCI-H1755	0.928
NCI-H2023	0.882

same assay, conditions: first compound 0.8 µM

Cell Line	relative viability
NCI-H2405	1.05
HOP-62	1.22
SK-MES-1	1.04
LU99A	0.841
BEN	1.01
HARA	0.917
HCC-78	0.584
NCI-H322M	0.969
LCLC-97TM1	0.862
NCI-H2009	1.27
A-427	1.18
NCI-H441	1.03
NCI-H1734	0.981
NCI-H460	0.975
NCI-H2347	1.4
SK-LU-1	0.97

Cell Line	relative viability
NCI-H1395	0.938
201T	1.17
NCI-H1915	1.28
HCC-827	1.07
LXF-289	1.01
NCI-H23	1.08
NCI-H647	1.27
CAL-12T	1.09
NCI-H1651	1.02
EPLC-272H	0.65
NCI-H2228	0.953
NCI-H1355	0.977
NCI-H3122	1.03
NCI-H1437	1.3
NCI-H1755	0.897
NCI-H2023	0.777

same assay, conditions: first compound 2.53 µM

Cell Line	relative viability
NCI-H2405	1.05
HOP-62	1.08
SK-MES-1	1.12
LU99A	0.703
BEN	0.627
HARA	1.08
HCC-78	0.649
NCI-H322M	0.832
LCLC-97TM1	0.901
NCI-H2009	1.22
A-427	1.02
NCI-H441	0.947
NCI-H1734	0.841
NCI-H460	1.09
NCI-H2347	0.797
SK-LU-1	0.817

Cell Line	relative viability
NCI-H1395	0.92
201T	1.04
NCI-H1915	1.14
HCC-827	0.956
LXF-289	0.963
NCI-H23	0.894
NCI-H647	1.17
CAL-12T	0.978
NCI-H1651	0.748
EPLC-272H	0.64
NCI-H2228	0.844
NCI-H1355	0.951
NCI-H3122	0.986
NCI-H1437	1.25
NCI-H1755	0.911
NCI-H2023	0.844

same assay, conditions: first compound 8 µM

Cell Line	relative viability
NCI-H2405	1.01
HOP-62	1.14
SK-MES-1	0.713
LU99A	0.789
BEN	0.643
HARA	0.69
HCC-78	0.551
NCI-H322M	0.856
LCLC-97TM1	1.03
NCI-H2009	1.24
A-427	1.17
NCI-H441	0.862
NCI-H1734	0.779
NCI-H460	0.914
NCI-H2347	1.08
SK-LU-1	0.775
NCI-H1395	1.08
201T	1.12
NCI-H1915	1.08
HCC-827	1.09
LXF-289	0.925
NCI-H23	0.959
NCI-H647	1.12
CAL-12T	0.991
NCI-H1651	0.772
EPLC-272H	0.519
NCI-H2228	0.868
NCI-H1355	0.883
NCI-H3122	0.964
NCI-H1437	1.29
